What was measured:
[1] = ethanol; cited from earlier work
[2] = dissolution of fine grains in water by slow stirring; assay type: physicochemical; details: 15 g fine grains (80-mesh pass) in 10 l of water at 20° C., slowly stirred for 24 hours
Source text: Because of the low dissolution rate, fumaric acid cannot be completely dissolved but remains as fine grains giving a slurry in these conventional methods. […] When such an aqueous fumaric acid solution is employed in sterilizing meats, the remaining fumaric acid grains sometimes damage the meat tissue.

gram negative bacteria = details: cited from earlier work
[3] = tested on: various bacteria such as E. coli 0-157; details: at 1.0% and 1.5%; cited from earlier work
[4] = tested on: various gram negative bacteria; details: cited from earlier work
Escherichia coli O-157 = details: cited from earlier work
[5] = cited from earlier work

SMILES: CCO [ethanol]
- time after which a bactericidal effect was exerted [1]: 60 min

SMILES: O=C(O)/C=C/C(=O)O [fumaric acid]
- dissolution of fine grains [2]: not completely dissolved
- growth of gram negative bacteria (gram negative bacteria): inhibited the growth
- bactericidal effect compared with other organic acids [3]: exceeding those of other organic acids
- bactericidal effect ([4]; gram negative bacteria (E. coli, salmonella, Shigella, etc.), short contact time): potent bactericidal effect
- antibacterial effect ([4]; within a short time, compared with other organic acids): strong antibacterial effect
- bactericidal effect (Escherichia coli O-157): strong bactericidal effect

SMILES: O=C([O-])/C=C/C(=O)O.[Na+] [monosodium fumarate]
- concentration showing bactericidal effects ([5]; aqueous solution): 0.8%
- bactericidal effects ([5]; concentration of 0.6% or less): did not show bactericidal effects
